Laboratory results published in ChEMBL document CHEMBL1201862, “PubChem BioAssay data set” (2004).
Calls of active or inactive are those of the source.

What was measured:
Phospholipase D1 = Phospholipase D1 (Homo sapiens, UniProt Q13393); assay: PLD1 Cellular Concentration Response Study.; format: functional
Phospholipase D2 = Phospholipase D2 (Homo sapiens, UniProt O14939); assay: PLD2 Cellular Concentration Response Study.; format: functional
[1] = P. falciparum Dd2 growth inhibitors, dose response, SYBR Green, dry powder samples, set 9 (AID 1159568); format: functional, cell-based
[2] = NIH:OVCAR-3 ovarian cancer cell cytotoxicity, dose response, PAX8 inhibitor project, plate reader, dry powder samples (AID 743044); format: functional, cell-based
Paired box protein Pax-8 = Paired box protein Pax-8 (Homo sapiens, UniProt Q06710); assay: inhibitors of PAX8-driven TPO luciferase reporter, dose response, RMG-I cells, cherry-pick (AID 687027); format: functional, cell-based;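 also: luciferase reporter driven by Pax8 target thyroperoxidase promoter measured by SteadyGlo luminescence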
[3] = IGROV1 ovarian cancer cell cytotoxicity, dose response, PAX8 inhibitor project, plate reader, dry powder samples (AID 743043); format: functional, cell-based; settings: IGROV-1
Protein Tat = molecular target: T1, Protein Tat (Human immunodeficiency virus type 1 group M subtype B (isolate HXB2)(HIV-1), UniProt P04608); format: functional;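 also: tat binding to TAR RNA read out by fluorescence polarization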
T1 sequence (P04608 whole entry): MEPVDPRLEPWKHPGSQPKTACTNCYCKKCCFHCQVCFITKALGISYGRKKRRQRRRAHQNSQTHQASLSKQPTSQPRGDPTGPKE

[4] = molecular target: T2, DNA repair protein RAD52 homolog (Homo sapiens, UniProt P43351); format: functional, biochemical
T2 sequence (P43351 whole entry): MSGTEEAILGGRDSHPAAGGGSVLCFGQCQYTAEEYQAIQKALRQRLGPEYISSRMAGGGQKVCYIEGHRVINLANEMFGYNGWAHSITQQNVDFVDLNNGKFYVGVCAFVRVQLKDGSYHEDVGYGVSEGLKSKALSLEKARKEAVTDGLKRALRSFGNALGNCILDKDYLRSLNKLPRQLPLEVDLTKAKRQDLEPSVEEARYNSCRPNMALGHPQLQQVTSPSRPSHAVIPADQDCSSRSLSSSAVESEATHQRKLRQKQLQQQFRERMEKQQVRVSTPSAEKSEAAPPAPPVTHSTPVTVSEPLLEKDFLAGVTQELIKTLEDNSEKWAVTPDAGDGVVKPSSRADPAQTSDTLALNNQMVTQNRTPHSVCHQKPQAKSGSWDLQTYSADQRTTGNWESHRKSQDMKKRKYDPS

[5] = molecular target: Glutathione-S-transferase (Schistosoma japonicum, UniProt Q26513); assay: biotin-GST/anti-GST TR-FRET signal inhibitors, dose response, artefact control for Vif-APOBEC3G degradation inhibitor project, biochemical (AID 1117362); format: functional
Fibrinogen beta chain [6] = molecular target: T3, Fibrinogen beta chain (Homo sapiens, UniProt P02675); assay: Fluorescence polarization-based biochemical high throughput dose response assay to identify inhibitors that disrupt the binding of a cyclic peptide (Tn6) to the fibrin proteolytic product D-Dimer and fragment E complex [DD(E )].
[7] = molecular target: T4, Rac GTPase-activating protein 1 (Homo sapiens, UniProt Q9H0H5); assay: MgcRacGAP GTPase-activating activity inhibitors, confirmation, biochemical, ADP Hunter fluorescence, primary and confirmatory (AID 624330); format: functional
T4 sequence (Q9H0H5 whole entry): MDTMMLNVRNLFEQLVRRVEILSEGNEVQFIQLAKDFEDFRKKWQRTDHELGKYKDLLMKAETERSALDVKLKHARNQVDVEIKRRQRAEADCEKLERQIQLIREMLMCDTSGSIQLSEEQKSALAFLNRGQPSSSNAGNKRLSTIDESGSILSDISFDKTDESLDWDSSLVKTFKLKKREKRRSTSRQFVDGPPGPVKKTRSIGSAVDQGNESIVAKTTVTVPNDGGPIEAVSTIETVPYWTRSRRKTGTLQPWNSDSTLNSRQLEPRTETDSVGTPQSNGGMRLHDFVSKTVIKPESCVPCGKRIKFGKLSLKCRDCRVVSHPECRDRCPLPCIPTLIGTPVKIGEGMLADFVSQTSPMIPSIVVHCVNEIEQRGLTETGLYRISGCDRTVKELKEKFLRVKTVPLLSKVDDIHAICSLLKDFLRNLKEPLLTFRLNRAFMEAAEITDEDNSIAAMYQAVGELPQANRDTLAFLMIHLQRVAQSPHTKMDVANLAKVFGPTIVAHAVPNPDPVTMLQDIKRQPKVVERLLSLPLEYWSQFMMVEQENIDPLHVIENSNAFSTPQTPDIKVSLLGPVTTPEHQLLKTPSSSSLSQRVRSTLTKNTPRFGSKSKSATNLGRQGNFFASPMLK

[8] = HeLa cell cytotoxicity, dose response, cytotoxicity control for MgcRacGAP inhibitor project (AID 624300); format: functional
[9] = molecular target: Matrix metalloproteinase-14 (Homo sapiens, UniProt P50281); assay: Dose Response confirmation of uHTS hits for a small molecule inhibitors of MT1-MMP activation in a fluorescence assay set 1.; format: functional
Fibrinogen beta chain [10] = molecular target: T3, Fibrinogen beta chain; assay: Fluorescence polarization-based biochemical high throughput dose response assay to identify inhibitors that disrupt the binding of a cyclic peptide (Tn7) to the fibrin proteolytic product D-Dimer and fragment E complex [DD(E )].
Nonstructural protein 1 = Nonstructural protein 1 (Influenza A virus, UniProt Q194T2); format: functional, Influenza A virus (A/California/07/2009(H1N1))
[11] = molecular target: T5, Histone-lysine N-methyltransferase NSD2 (Homo sapiens, UniProt O96028); format: biochemical
T5 sequence (O96028 whole entry): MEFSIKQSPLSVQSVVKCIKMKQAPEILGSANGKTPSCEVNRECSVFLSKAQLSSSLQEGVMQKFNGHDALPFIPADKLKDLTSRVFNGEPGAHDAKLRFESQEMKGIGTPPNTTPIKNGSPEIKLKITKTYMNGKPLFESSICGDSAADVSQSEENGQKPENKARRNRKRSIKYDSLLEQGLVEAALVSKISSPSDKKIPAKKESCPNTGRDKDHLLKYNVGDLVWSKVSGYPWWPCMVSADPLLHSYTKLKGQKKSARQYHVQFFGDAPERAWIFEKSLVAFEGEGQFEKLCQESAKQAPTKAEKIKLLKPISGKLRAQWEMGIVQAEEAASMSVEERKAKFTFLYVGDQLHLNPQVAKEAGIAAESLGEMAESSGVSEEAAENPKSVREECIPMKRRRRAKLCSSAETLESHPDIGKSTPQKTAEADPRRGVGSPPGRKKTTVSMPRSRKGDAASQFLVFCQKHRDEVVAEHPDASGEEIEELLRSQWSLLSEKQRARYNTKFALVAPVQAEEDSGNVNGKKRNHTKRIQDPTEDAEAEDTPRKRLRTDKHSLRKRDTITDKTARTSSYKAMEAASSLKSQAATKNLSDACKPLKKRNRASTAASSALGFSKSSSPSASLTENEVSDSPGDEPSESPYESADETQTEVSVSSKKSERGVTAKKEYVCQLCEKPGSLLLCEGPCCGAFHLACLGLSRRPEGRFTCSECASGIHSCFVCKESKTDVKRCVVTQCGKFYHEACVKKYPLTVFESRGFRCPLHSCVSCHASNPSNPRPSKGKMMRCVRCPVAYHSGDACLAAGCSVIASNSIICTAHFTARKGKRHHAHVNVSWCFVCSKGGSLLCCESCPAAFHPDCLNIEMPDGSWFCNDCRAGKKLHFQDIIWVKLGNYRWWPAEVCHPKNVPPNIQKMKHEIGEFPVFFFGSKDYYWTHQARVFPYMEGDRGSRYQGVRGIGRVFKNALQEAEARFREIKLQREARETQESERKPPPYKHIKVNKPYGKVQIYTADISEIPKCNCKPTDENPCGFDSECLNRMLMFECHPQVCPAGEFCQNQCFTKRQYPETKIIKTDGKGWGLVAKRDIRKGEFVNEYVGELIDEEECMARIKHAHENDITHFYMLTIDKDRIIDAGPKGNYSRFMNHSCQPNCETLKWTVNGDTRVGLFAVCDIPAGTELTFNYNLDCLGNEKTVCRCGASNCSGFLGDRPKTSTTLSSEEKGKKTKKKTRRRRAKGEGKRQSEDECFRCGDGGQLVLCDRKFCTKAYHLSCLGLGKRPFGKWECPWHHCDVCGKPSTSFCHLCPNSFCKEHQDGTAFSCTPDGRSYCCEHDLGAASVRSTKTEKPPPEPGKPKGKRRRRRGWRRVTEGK

T3 sequence (P02675 whole entry, the tested form may be a part): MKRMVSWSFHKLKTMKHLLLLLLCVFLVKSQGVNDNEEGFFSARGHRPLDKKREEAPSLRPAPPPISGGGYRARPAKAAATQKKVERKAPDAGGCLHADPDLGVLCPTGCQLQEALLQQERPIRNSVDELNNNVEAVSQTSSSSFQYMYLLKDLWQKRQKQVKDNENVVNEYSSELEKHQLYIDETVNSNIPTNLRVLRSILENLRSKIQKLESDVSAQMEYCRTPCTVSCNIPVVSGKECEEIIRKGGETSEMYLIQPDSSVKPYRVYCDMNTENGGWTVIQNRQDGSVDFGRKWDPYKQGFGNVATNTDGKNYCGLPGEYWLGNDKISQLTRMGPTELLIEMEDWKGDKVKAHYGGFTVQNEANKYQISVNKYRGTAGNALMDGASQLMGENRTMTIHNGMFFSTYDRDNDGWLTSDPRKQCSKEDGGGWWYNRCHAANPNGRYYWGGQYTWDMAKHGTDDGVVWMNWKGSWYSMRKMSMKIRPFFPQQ
Chain of Paired box protein Pax-8 (Q06710 whole entry): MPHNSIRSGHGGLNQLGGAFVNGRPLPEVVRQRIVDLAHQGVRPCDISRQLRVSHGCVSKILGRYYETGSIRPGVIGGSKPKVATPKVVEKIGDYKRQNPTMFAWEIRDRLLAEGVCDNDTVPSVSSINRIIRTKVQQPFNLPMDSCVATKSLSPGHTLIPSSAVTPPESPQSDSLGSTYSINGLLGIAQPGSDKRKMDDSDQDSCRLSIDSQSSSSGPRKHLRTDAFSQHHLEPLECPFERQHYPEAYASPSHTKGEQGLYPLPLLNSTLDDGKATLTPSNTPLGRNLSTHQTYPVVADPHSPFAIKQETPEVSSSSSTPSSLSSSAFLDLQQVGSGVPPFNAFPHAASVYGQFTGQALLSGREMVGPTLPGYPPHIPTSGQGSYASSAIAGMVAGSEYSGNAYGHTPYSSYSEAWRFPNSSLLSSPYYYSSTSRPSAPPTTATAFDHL
Chain of Phospholipase D1 (Q13393 whole entry): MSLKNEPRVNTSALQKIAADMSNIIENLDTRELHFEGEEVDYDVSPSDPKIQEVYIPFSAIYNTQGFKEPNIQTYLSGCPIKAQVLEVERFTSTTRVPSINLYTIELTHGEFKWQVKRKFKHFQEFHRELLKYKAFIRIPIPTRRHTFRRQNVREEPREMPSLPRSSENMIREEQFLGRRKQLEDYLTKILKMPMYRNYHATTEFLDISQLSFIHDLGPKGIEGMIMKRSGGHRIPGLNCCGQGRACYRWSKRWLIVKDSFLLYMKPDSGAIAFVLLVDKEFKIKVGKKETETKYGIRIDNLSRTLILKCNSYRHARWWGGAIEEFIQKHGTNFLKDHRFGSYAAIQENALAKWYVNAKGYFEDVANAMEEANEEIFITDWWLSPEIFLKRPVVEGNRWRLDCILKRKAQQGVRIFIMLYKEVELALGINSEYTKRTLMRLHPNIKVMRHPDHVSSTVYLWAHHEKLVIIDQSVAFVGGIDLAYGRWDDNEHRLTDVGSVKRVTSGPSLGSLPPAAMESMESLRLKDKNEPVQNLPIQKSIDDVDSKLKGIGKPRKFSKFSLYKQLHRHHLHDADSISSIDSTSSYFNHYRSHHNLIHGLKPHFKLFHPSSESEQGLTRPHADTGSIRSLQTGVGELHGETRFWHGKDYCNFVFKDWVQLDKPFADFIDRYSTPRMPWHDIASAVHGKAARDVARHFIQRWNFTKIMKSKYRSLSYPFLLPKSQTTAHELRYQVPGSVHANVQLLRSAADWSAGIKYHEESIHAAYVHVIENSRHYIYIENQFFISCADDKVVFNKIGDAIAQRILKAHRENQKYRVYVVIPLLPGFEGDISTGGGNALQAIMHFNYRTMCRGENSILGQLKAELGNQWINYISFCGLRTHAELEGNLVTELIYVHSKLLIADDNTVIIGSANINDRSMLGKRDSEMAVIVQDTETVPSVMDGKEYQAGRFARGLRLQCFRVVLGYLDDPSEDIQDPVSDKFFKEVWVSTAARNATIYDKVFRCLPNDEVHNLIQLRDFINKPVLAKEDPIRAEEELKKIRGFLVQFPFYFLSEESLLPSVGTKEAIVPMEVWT
Chain of Nonstructural protein 1 (Q194T2 whole entry): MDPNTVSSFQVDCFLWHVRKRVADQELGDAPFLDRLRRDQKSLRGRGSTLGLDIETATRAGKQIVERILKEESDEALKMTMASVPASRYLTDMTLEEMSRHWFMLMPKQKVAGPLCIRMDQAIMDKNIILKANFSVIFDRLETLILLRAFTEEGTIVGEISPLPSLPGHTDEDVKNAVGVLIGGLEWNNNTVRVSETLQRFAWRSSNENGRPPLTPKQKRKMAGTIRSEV
Chain of Glutathione-S-transferase (Q26513 whole entry, the tested form may be a part): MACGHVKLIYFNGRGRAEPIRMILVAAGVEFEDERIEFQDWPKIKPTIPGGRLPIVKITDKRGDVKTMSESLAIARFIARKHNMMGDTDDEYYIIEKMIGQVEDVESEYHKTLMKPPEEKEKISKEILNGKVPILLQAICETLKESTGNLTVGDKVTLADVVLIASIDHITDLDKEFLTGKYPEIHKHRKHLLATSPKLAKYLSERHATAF
Chain of Phospholipase D2 (O14939 whole entry): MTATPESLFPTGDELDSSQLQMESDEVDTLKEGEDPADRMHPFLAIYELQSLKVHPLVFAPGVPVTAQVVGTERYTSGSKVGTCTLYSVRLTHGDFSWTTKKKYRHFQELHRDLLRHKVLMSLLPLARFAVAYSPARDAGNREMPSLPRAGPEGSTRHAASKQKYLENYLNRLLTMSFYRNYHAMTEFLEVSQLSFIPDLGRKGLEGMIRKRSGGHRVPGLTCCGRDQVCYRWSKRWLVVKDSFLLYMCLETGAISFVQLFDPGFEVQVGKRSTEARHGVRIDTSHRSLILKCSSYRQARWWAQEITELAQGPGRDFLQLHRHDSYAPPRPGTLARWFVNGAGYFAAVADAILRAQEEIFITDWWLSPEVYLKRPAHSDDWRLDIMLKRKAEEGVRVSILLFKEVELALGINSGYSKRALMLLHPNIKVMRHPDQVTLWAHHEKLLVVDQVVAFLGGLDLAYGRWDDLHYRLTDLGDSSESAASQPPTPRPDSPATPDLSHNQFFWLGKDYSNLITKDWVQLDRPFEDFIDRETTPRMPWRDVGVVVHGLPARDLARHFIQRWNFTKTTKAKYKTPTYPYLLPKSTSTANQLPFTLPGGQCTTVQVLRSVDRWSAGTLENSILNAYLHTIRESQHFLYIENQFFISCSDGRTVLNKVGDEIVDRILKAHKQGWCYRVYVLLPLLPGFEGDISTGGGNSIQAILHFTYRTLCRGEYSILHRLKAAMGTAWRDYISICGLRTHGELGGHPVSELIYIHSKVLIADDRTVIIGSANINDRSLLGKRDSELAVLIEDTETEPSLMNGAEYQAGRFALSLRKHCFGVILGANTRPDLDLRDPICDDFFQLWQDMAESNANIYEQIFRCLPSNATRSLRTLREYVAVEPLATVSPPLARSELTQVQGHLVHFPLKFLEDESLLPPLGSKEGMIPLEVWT

O=C(NCCN1CCC2(CC1)C(=O)NCN2Cc1cccnc1)c1cc2cc(F)ccc2[nH]1
IC50 (Phospholipase D1): 3.15 µM (active)
IC50 (Phospholipase D2): 0.12 µM (active)

O=C(Nc1ccccc1F)N1CCCCN2[C@@H](CO)[C@@H](c3ccc(/C=C/c4ccccc4)cc3)[C@@H]2C1
AC50 [1]: 2.52 µM (active)
AC50 [2]: 10.6 µM (active)
AC50 (Paired box protein Pax-8): 7.96 µM (active)
AC50 [3]: 29.1 µM (active)

Nc1ccc(N2CCN(CCCCN3C(=O)C4CCCN4C3=O)CC2)cc1 (configuration not stated)
IC50 (Protein Tat): > 100 µM (active)
AC50 [4]: 1.29 µM (active)
IC50 [5]: 3.15 µM (active)

O=C1c2cccc(NCCCNCCO)c2C(=O)c2cccc(NCCCNCCO)c21
IC50 (Fibrinogen beta chain [6]): 9.1 µM (active)
IC50 [7]: 27.8 µM (active)
CC50 [8]: 25.6 µM (active)
IC50 [9]: 38 µM (inactive)
IC50 (Fibrinogen beta chain [10]): > 83.3 µM (inactive)
AC50 [4]: < 0.15 µM (active)
IC50 (Nonstructural protein 1): 10.1 µM (active)
AC50 [11]: 3.53 µM (active)
